Legend:
[1] = Pour point of the additive; type: physicochemical; parameters: unit not given here; conditions: neat additive
[2] = Flash point of the additive; type: physicochemical; conditions: neat additive
[3] = neat additive
From the text: Additional characteristics of the exemplary additives and controls are shown below in Table 9. […] The Control and Control 2 are the presented formula without an additive included. […] Blend 1 is the presented formula with a blend of rosin ester tackifier and fatty acid ester used as a control additive. For Control 2 and Inventive Ex. 1-Adj, the first pass and second pass were mixed in the mixer, but the final pass was mixed on the mill. Inventive Ex. 1-Adj was split into three (3) to allow for three (3) different cure adjustments to try to increase the Ts2 (the […] time for the viscosity to increase 2 units above minimum torque (ML)), slightly reduce Tc90 (the time it takes to get to 90% of the maximum state of cure/cross-linking (MH or maximum torque)), and increase the maximum torque (MH) to more closely match the Moving Die Rheometer (MDR) curve of the control compound.

For `CCCCCCCC/C=C\CCCCCCCC(=O)NCCCN(C)C` [Inventive Ex. 6, dimethylaminopropylamine (DMAPA) oleic acid amidoamine], the “Pour Point” value [1] was 0 and the “Flash Point” value [2] was 113 C.

For `CCCCCCCC/C=C\CCCCCCCC1=NCCN1CCN` [Inventive Ex. 2, diethylenetriamine (DETA) oleic acid imidazoline], the “Water Solubility” value [3] was “Partial ~2%”, the “Pour Point” value [1] was −27 and the “Flash Point” value [2] was greater than 200 C.

In the case of `CCCCCCCC/C=C\CCCCCCCC(=O)NCCNCCN` [Inventive Ex. 1, diethylenetriamine (DETA) oleic acid amidoamine], the “Pour Point” value [1] is reported as 36 and the “Flash Point” value [2] is reported as greater than 200 C.

In the case of `CCCCCCCC/C=C\CCCCCCCC(=O)NCCNCCNC(=O)CCCCCCC/C=C\CCCCCCCC` [Inventive Ex. 3, diethylenetriamine (DETA) oleic acid bisamide], the “Water Solubility” value [3] is reported as “none”, the “Pour Point” value [1] is reported as 78 and the “Flash Point” value [2] is reported as greater than 200 C.

With “tetraethylenepentamine (TEPA) oleic acid amidoamine [Inventive Ex. 5]” the “Pour Point” value [1] was −12 and the “Flash Point” value [2] was greater than 200 C.
